# According to patent US11613538B2, “Method of inhibiting or reducing a viral infection” (PTC Therapeutics, Inc., priority 2009, dated 2023):
# pEC50: −log10 of the molar value. Marks after values point to notes of the source that are not given here.
# Legend:
# [1] = Plasma trough levels in patients having a variety of cancers; format: in vivo, human; conditions: combination therapy with Compound #10; in words
# [2] = test system: hypoxia-induced VEGF production in HeLa cells; assay: cells; format: cell-based, human
# human VEGF = assay: Intra-tumor and plasma human VEGF in HT1080 xenograft mice (ELISA); format: in vivo; conditions: for Mean difference in human plasma VEGF (%) on Day 14 / Mean difference in human tumor VEGF (%) at Day 14: 14 days
# Excerpt: Human HT1080 cells (5×10^6 cells/mice) were implanted subcutaneously into male athymic nude mice. Human HT1080 cells constitutively produce human VEGF. Treatment with vehicle alone or Compound 1205 was initiated when the median tumor volume was approximately 311±88 mm^3. Table 3 and Table 4 provide the study design for assessing tumor and pathological plasma VEGF concentrations—each group in each study included eight (8) mice. When the tumors in vehicle-treated mice had reached the target size of about 1200 mm^3 for study #21 and about 1500 mm^3 for study #23, all mice in the study were sacrificed, and excised tumors were homogenized in buffer containing protease inhibitors. Both intra-tumor and plasma human VEGF levels were measured using an ELISA that recognizes human VEGF121 and VEGF165. Intra-tumor VEGF levels were normalized to the total tumor protein concentration and plasma VEGF levels were expressed in pg/mL. Because smaller tumors produce less VEGF per mg of tumor protein, intra-tumor VEGF levels were normalized to tumor size.
# HT1080 xenografts = assay: HT1080 xenograft tumor growth in male athymic nude mice; format: in vivo
# Excerpt: Experimental Design. HT1080 cells (5×10^6 cells/mouse) were implanted subcutaneously in male athymic nude mice. […] For comparison, Compound #10 was included in this study.
# HT1080 cells = assay: Cell cycle analysis of HT1080 cells (propidium iodide, flow cytometry); format: cell-based, human; conditions: 10 nM, 18 hours, normoxic conditions; in words
# Method: During the in vitro evaluation of Compound 1205 effects on VEGF expression, an examination of its actions on tumor cell cycling was performed. HT1080 cells were incubated under normoxic conditions (21% oxygen) for 18 hours with vehicle (0.5% DMSO) alone, or with 10 nM of Compound 1205. After treatment, cells were trypsinized, and stained with propidium iodide (PI) dye to measure DNA content of individual cells by flow cytometry. Output comprised histograms showing relative DNA content in 10,000 cells.
# murine kidney VEGF = assay: Mouse kidney VEGF levels in tumor-bearing mice; format: in vivo; conditions: 0.5 mg/kg (28 days) or 3 mg/kg (32 days); in words
# Method: After mouse tumors reached 1500 mm^3, mice were sacrificed and tissues were collected at the time of necropsy, homogenized, and analyzed. On average, mice treated with Compound 1205 at 0.5 mg/kg were on study for 28 days, and mice treated with Compound 1205 at 3 mg/kg were on study for 32 days.
# [3] = Bioavailability in vivo of aqueous suspension; conditions: in words
# Excerpt: It is anticipated that Compound 1205 can be clinically administered via a solid-dosage form. For all the studies outlined herein, Compound 1205 was lyophilized prior to formulation to minimize batch-to-batch variations in particle-size.
structure (smiles),measurement,setting,value
CC(=O)O[C@@]12CO[C@@H]1C[C@H](O)[C@@]1(C)C(=O)[C@H](O)C3=C(C)[C@@H](OC(=O)[C@H](O)[C@@H](NC(=O)OC(C)(C)C)c4ccccc4)C[C@@](O)([C@@H](OC(=O)c4ccccc4)[C@H]21)C3(C)C [docetaxel],PK profile (FIG. 18),[1],consistent with historical data
O=C(Oc1ccc(Cl)cc1)N1CCc2c([nH]c3ccc(Cl)cc23)[C@@H]1c1ccc(OCC[C@H](O)CO)cc1 [Compound 1205],Inhibition of stress-induced VEGF production (FIG. 1),[2],inhibit stress-induced VEGF production
same,pEC50,"[2]; Homo sapiens, HeLa",> 8.10
same,Inhibition of plasma VEGF levels,human VEGF; 0.5 or 3 mg/kg QD,more than 95%
same,Inhibition of tumor VEGF levels,human VEGF; 0.5 or 3 mg/kg QD,more than 95%
same,Mean difference in human plasma VEGF (%) on Day 14,"human VEGF; Study #21, 0.5 mg/kg QD",97%**
same,Mean difference in human tumor VEGF (%) at Day 14,"human VEGF; Study #21, 0.5 mg/kg QD",95%**
same,Mean difference in human plasma VEGF (%) on Day 14,"human VEGF; Study #21, 3 mg/kg QD",99%
same,Mean difference in human tumor VEGF (%) at Day 14,"human VEGF; Study #21, 3 mg/kg QD",98%**
same,Mean difference in human plasma VEGF (%) on Day 14,"human VEGF; Study #23, 1 mg/kg QD",100%**
same,Mean difference in human tumor VEGF (%) at Day 14,"human VEGF; Study #23, 1 mg/kg QD",95** %
same,Volume normalized intra-tumor VEGF levels,"human VEGF; treated groups vs vehicle, in words",significantly reduced
same,Lowest dose at which active,HT1080 xenografts; HT1080 xenograft,≤ 0.3 mg/kg
same,Mean difference in tumor growth rate at the Day that the vehicle-treated tumors taken off study (%),"HT1080 xenografts; Study 21, 0.5 mg/kg QD, Day 14",61%**
same,Final mean terminal tumor size in treatment group (mm^3),"HT1080 xenografts; Study 21, 0.5 mg/kg QD, administered 14 days",580 mm^3
same,Mean difference in tumor growth rate at the Day that the vehicle-treated tumors taken off study (%),"HT1080 xenografts; Study 21, 3 mg/kg QD, Day 14",80%**
same,Final mean terminal tumor size in treatment group (mm^3),"HT1080 xenografts; Study 21, 3 mg/kg QD, administered 14 days",379 mm^3
same,"Difference vs. vehicle in median number of days to reach 1000 mm^3,","HT1080 xenografts; Study 22, 0.5 mg/kg QD",11 days
same,Mean difference in tumor growth rate at the Day that the vehicle-treated tumors taken off study (%),"HT1080 xenografts; Study 22, 0.5 mg/kg QD, Day 11",62%**
same,Final mean terminal tumor size in treatment group (mm^3),"HT1080 xenografts; Study 22, 0.5 mg/kg QD, administered 28 days",1750 mm^3
same,"Difference vs. vehicle in median number of days to reach 1000 mm^3, (Days)","HT1080 xenografts; Study 22, 3 mg/kg QD",14** Days
same,Mean difference in tumor growth rate at the Day that the vehicle-treated tumors taken off study (%),"HT1080 xenografts; Study 22, 3 mg/kg QD, Day 11",75%**
same,Final mean terminal tumor size in treatment group (mm^3),"HT1080 xenografts; Study 22, 3 mg/kg QD, administered 32 days",1840 mm^3
same,Mean difference in tumor growth rate at the Day that the vehicle-treated tumors taken off study (%),"HT1080 xenografts; Study 23, 1 mg/kg QD, Day 14",59%**
same,Final mean terminal tumor size in treatment group (mm^3),"HT1080 xenografts; Study 23, 1 mg/kg QD, administered 14 days",710 mm^3
same,"Difference vs. vehicle in median number of days to reach 1000 mm^3, (Days)","HT1080 xenografts; Study 24a, 10 mg/kg QD, Compound 1205 column",14** Days
same,Mean difference in tumor growth rate at the Day that the vehicle-treated tumors taken off study (%),"HT1080 xenografts; Study 24a, 10 mg/kg QD, Day 11, Compound 1205 column",76%**
same,Final mean terminal tumor size in treatment group (mm^3),"HT1080 xenografts; Study 24a, 10 mg/kg QD, administered 30 days",1400 mm^3
same,"Difference vs. vehicle in median number of days to reach 1000 mm^3,","HT1080 xenografts; Study 24b, 0.3 mg/kg QD",0.7 days
same,Mean difference in tumor growth rate at the Day that the vehicle-treated tumors taken off study (%),"HT1080 xenografts; Study 24b, 0.3 mg/kg QD, Day 15",28%
same,Final mean terminal tumor size in treatment group (mm^3),"HT1080 xenografts; Study 24b, 0.3 mg/kg QD, administered 16 days",1540 mm^3
same,Growth of HT1080 tumors in vivo (FIG. 4),"HT1080 xenografts; study #24a, 10 mg/kg QD, in words",significantly delayed growth of HT1080 tumor cells in vivo
same,"Cell cycle distribution (relative DNA content, FIG. 5)",HT1080 cells,induced a redistribution of the cycling characteristics of the cell population
same,Murine kidney VEGF levels (FIG. 6),murine kidney VEGF,did not significantly decrease murine kidney VEGF levels
same,Bioavailability,[3],bioavailable in vivo
same,solubility,Solubility in water,~1 µg/mL
